In patent US20060058364A1, “Treatment of dependence and dependence related withdrawal symptoms” (priority 2002, published 2006):
Where two headings read alike, the source gives them in different places.

Legend:
[1] = test system: 5-HT1A receptors or 5-HT1D receptors; settings: cited from earlier work
[2] = test system: atipamezole cue (atipamezole-associated lever selection); assay type: in vivo; settings: for dose at which full generalization was achieved: training dose 1 mg/kg s.c.
Method: A total of 50 Sprague-Dawley male rats (B&K, Sweden) were used in the drug discrimination experiment at Orion Pharma, Turku, Finland. The rats were housed in solid bottom polypropylene cages with stainless steel mesh lids 5 rats per cage on a 12/12 hour light/dark cycle (lights on at 06.00 a.m.) under standard conditions in 21±1° C. temperature. […] During training period the rats were allowed food 6-15 g/day immediately after the session and during testing period they were allowed 12-15 g/day after the session. The rats adopted well to this feeding schedule and grew slowly but steadily. Rats were drug and experimentally naive at the start of the experiments. All experimentation was approved by the local laboratory animal care and experimentation committee. The animals were housed according to the recommendations of Declaration of Helsinki and DHEW pub. No (NIH) 85-23 entitled “Guide for the care and use of laboratory animals”.
The drugs used were atipamezole HCl and MPV-1730 HCl (Orion Pharma, Finland), d-amphetamine sulphate (Sigma, USA), cocaine HCl (Tamro, Finland)) and desipramine HCl (Sigma, USA). All doses refer to respective salt forms. Drugs were diluted in sterile purified water (Aquasteril, Orion Pharma, Finland) and were prepared daily. Injections were given 30 min before the sessions. Saline (Natrosteril, Orion Pharma, Finland) was used in control administrations. Drugs were administered subcutaneously (s.c.) or intraperiotoneally (i.p.) in a volume of 1 ml/kg or perorally (p.o.) gy a gavage 10 ml/kg.
In the atipamezole discrimination experiment five identical operant chambers enclosed in larger sound and light attenuating, fan ventilated enclosures were used. Each chamber was equipped with two identical levers on one wall. Between these levers was a food cup, where 45 mg reward pellets (F0021, Bio-Serv, Frenchtown, USA) could be presented. The whole operant system was purchased from Rhema-Labortechnik, Hofheim, Germany.
The training to press levers for reward pellets was started with 50 rats with a continuous reinforcement (CRF) schedule, when both levers were active and later by changing daily the active lever. […] The duration of the session to this point was 30 min and thereafter the training sessions were reduced to 15 min. The discrimination training dose of atipamezole (1 mg/kg s.c.) was selected according to the effect of atipamezole (0, 0.1, 0.3, 1 and 3 mg/kg s.c.) on FR-10 responding when tested in the rats (session 30, data not shown). Thereafter, discrimination training was started with 46 rats. The discrimination training was done in following two week sequence: S-D-D-S-S and D-S-S-D-D (D=drug appropriate lever, S=saline lever) (Colpaert F., Niemegeers, C., Janssen, P. Theoretical and methodological considerations on drug discrimination learning. Psychopharmacologia (Berl.) 46: 169-177, 1976.). For half of the rats the right lever was a drug-appropriate lever and for the another half the left lever. During training only the drug- or saline-appropriate lever was active, but both levers were recorded. If a rat chose the correct lever during ten consecutive sessions and the total number of responses before the first reinforcer was 15 or less, the rat was accepted to the drug tests.
When the rats had reached the criterion, they were tested twice a week (usually on Wednesdays and Fridays) with different drugs. The normal sequence of saline or atipamezole was continued on other days. The lever selection had to be correct on the preceding day of the drug test and on the next day after drug test in order to be approved in the results. In the testing day, the rat decided which lever was activated by pressing ten lever presses on either of the levers. The selected lever was activated during the rest of the session. The previous saline day was used as a predrug control value. […]

[3] = test system: idazoxan cue; settings: rats trained to discriminate idazoxan; cited from earlier work
[4] = test system: alpha1-adrenergic, dopaminergic, GABAergic, serotonergic (such as 5-HT1A) etc. receptors; settings: cited from earlier work
[5] = test system: psychostimulants such as amphetamine and cocaine (cue); settings: rat, in vivo; cited from earlier work
[6] = test system: dopaminergic, 5-hydroxyhyptaminergic receptors and benzodiazepine receptors; settings: cited from earlier work
[7] = test system: amphetamine cue; settings: rats trained to discriminate d-amphetamine; cited from earlier work

SMILES: CC1c2ccccc2CN1CC1=NCCN1 (stereo not drawn) [BRL 44408]
- affinity on 5-HT1A receptors or 5-HT1D receptors [1]: have affinity

SMILES: C[C@H](N)Cc1ccccc1 [d-amphetamine]
- generalization to atipamezole cue ([2]; s.c., tested 0.03-1 mg/kg, at doses 0.5 and 1 mg/kg, 30 min before session, FIG. 2): clearly generalized
- generalization to idazoxan [3]: did not generalize

SMILES: CCC1(c2c[nH]cn2)Cc2ccccc2C1.Cl [Atipamezole, 4-(2-ethyl-2,3-dihydro-1H-inden-2-yl)-1H-imidazole hydrochloride]
- affinity for any other neurotransmitter receptors [4]: negligible affinity
- atipamezole-associated lever selection ([2]; 0.003-10 mg/kg, FIG. 1): dose-responsively increased
- dose at which full generalization was achieved ([2]; atipamezole p.o., 60 min before session, FIG. 1): 1 mg/kg
- dose at which full generalization was achieved ([2]; atipamezole s.c., 30 min before session, FIG. 1): 0.3 mg/kg

SMILES: CNCCCN1c2ccccc2CCc2ccccc21 [desipramine]
- generalisation to psychostimulants [5]: only weakly
- generalization to atipamezole ([2]; i.p., 30 min before session, FIG. 4): not generalized
- tolerability of higher doses ([2]; rat, in vivo): discontinued due to a prolonged lack of appetite

SMILES: COC(=O)[C@@H]1[C@H]2C[C@H]3c4[nH]c5ccccc5c4CCN3C[C@@H]2CC[C@@H]1O [yohimbine]
- affinity to other than noradrenergic receptors [6]: has affinity
- generalization to amphetamine [7]: did not generalize

SMILES: c1ccc2c(c1)OCC(C1=NCCN1)O2 (stereo not drawn) [idazoxan]
- generalization to amphetamine [7]: did not generalize
- affinity on 5-HT1A receptors or 5-HT1D receptors [1]: have affinity

SMILES: COc1ccc2c(c1)CCN1C[C@H]3CCCN(S(C)(=O)=O)[C@H]3C[C@@H]21 [delequamine]
- affinity on 5-HT1A receptors or 5-HT1D receptors [1]: have affinity

SMILES: COc1ccccc1N1CCN(CCN2C(=O)c3ccccc3C(C)(C)C2=O)CC1 [ARC 239]
- affinity on 5-HT1A receptors or 5-HT1D receptors [1]: have affinity

SMILES: COC1(C2=NCCN2)COc2ccccc2O1 (stereo not drawn) [RX821002]
- affinity on 5-HT1A receptors or 5-HT1D receptors [1]: have affinity

SMILES: CCC1(c2c[nH]cn2)Cc2ccc(F)cc2C1 (stereo not drawn) [MPV-1730, 4-(2-ethyl-5-fluoro-2,3-dihydro-1H-inden-2-yl)-1H-imidazole]
- generalization to atipamezole cue ([2]; 0.01-1 mg/kg s.c., 30 min before session, FIG. 3): generalized to atipamezole cue
